The test system of assay [1] is PANC-1 (prancreatic carcinoma) cell line. Nature of the assay: CellTiter-Glo luminescent cell viability assay, PANC-1. It counts as cell-based. Particulars: Homo sapiens; for viability at 4 µM: PANC-1, 4 μM; for viability at 4 µM / viability at 10 µM: 72 h, % of signal of diluent-treated cultures; for viability at 10 µM: PANC-1, 10 μM; for pEC50: PANC-1 cell line, 72 h incubation, CellTiter-Glo, read-out: EC50 (growth inhibition assay of PANC-1 cell line). The essentials:
(§1)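 In a 72 h viability assay, compound-treated cells were compared against matched H2O or DMSO diluent controls by luminescence, points in at least duplicate.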
(In general: In ATP-based viability assays light output follows the ATP content of the culture.)

The test system of assay [2] is 786-O (renal adenocarcinoma) cell line. The experiment in a line: CellTiter-Glo luminescent cell viability assay, 786-O. In kind it is cell-based, human. Particulars: Homo sapiens, 786-0; for pEC50: 786-O cell line, 72 h incubation, CellTiter-Glo, read-out: EC50, growth inhibition of 786-O; for viability at 4 µM / viability at 10 µM: 786-O, 72 h; for viability at 4 µM: compound at 4 μM; for viability at 10 µM: compound at 10 μM. A digest of the protocol:
(§2)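 Luminescent signal, normalised to diluent-treated cultures, defines % viability; EC50 is the concentration lowering it to 50%. Cells had been exposed to compound for 72 h at 37 °C in medium with 10% FBS, at a constant H2O or DMSO percentage.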

For assay [3], the system named is A375 (malignant melanoma) cell line. Nature of the assay: CellTiter-Glo luminescent cell viability assay, A375. The following applies: Homo sapiens, A-375; for viability at 4 µM: A375, compound at 4 μM; for viability at 4 µM / viability at 10 µM: 72 h; for viability at 10 µM: A375, compound at 10 μM; for pEC50: A375 cell line, 72 h incubation, CellTiter-Glo, read-out: EC50, growth inhibition of A375. It counts as cell-based, human. A digest of the protocol: as §2

The test system of assay [4] is HCT-116 (colorectal carcinoma) cell line. The experiment in a line: CellTiter-Glo luminescent cell viability assay, HCT-116. The following applies: Homo sapiens; for viability at 4 µM: HCT-116, compound at 4 μM; for viability at 4 µM / viability at 10 µM: 72 h; for viability at 10 µM: HCT-116, compound at 10 μM; for pEC50: HCT-116 cell line, 72 h incubation, CellTiter-Glo, read-out: EC50, growth inhibition of HCT-116. It counts as cell-based, human. A digest of the protocol: as §2

For assay [5], the system named is MOLM-14 (acute myeloid leukemia) cell line. The experiment in a line: CellTiter-Glo luminescent cell viability assay, MOLM-14. It counts as cell-based, human. The following applies: Homo sapiens; for viability at 4 µM: MOLM-14, compound at 4 μM; for viability at 4 µM / viability at 10 µM: 72 h; for viability at 10 µM: MOLM-14, compound at 10 μM; for pEC50: MOLM-14 cell line, 72 h incubation, CellTiter-Glo, read-out: EC50, growth inhibition of MOLM-14. The essentials: as §1

The test system of assay [6] is HepG2 (hepatocellular carcinoma) cell line. Nature of the assay: CellTiter-Glo luminescent cell viability assay, HepG2. In kind it is cell-based, human. The following applies: Homo sapiens; for viability at 4 µM / viability at 10 µM: HepG2, HepG, 72 h; for viability at 4 µM: compound at 4 μM; for viability at 10 µM: compound at 10 μM; for pEC50: HepG2 cell line, 72 h incubation, CellTiter-Glo, read-out: EC50, growth inhibition of HepG2. A digest of the protocol: as §1

Assay [7] concerns Huh7 (hepatocellular carcinoma) cell line. Nature of the assay: CellTiter-Glo luminescent cell viability assay, Huh7. It counts as cell-based, human. Particulars: Homo sapiens, Huh-7; for viability at 4 µM: Huh7, compound at 4 μM; for viability at 4 µM / viability at 10 µM: 72 h; for viability at 10 µM: Huh7, compound at 10 μM; for pEC50: Huh7 cell line, 72 h incubation, CellTiter-Glo, read-out: EC50, growth inhibition of Huh7. A digest of the protocol: as §1

pEC50: −log10 of the molar value.

This note sets out measurements from US10577362B2, “Substituted 2, 4-diamino-quinoline derivatives for use in the treatment of proliferative diseases” (GENOSCIENCE PHARMA, priority 2016, dated 2020).

`CC(C)(C)NC1CCN(c2c(C#N)c(NCc3ccc(F)cc3)nc3ccccc23)CC1` [Compound 240CN, 2-(4-fluorobenzylamino)-3-cyano-4-[4-(tert-butylamino)piperidin-1-yl]quinoline]: the viability (as a rule, a read-out of living cells in per cent, often relative to untreated cells) at 4 µM in assay [1] is 98.3%; in assay [2] it was 77.2%; in assay [3], 64.5%; in assay [4], 55.2%; in assay [5], 100%; in assay [6] it was 86.7%. The viability at 4 µM in assay [7] came out at 80%. Besides, the viability at 10 µM in assay [1] amounted to 30%; in assay [2], 0.7%; in assay [3] it was 0.3%; in assay [4], 0.3%; in assay [5], 0.5%; in assay [6], 0.4%. Moreover, in assay [7], the viability at 10 µM is 0.4%. The pEC50 (in general, the EC50 on a negative log10 scale, so that one unit is a factor of ten) is 5.00 to 5.30 in assay [1]; 5.00 to 5.30 in assay [2]; 5.30 to 6.30 in assay [3]; 5.30 to 6.30 in assay [4]; 5.00 to 5.30 in assay [5]; 5.30 to 6.30 in assay [6]. In addition, in assay [7], the pEC50 is 5.30 to 6.30.
As for `CC(C)(C)NC1CCN(c2c(C#N)c(NCc3cccnc3)nc3ccccc23)CC1` [Compound 3304CN, 2-[(pyridin-3-ylmethyl)amino]-3-cyano-4-[4-(tert-butylamino)piperidin-1-yl]quinoline], the viability at 4 µM in assay [1] came to 99.3%; in assay [2], 98.9%; in assay [3], 99.5%; in assay [4], 70.6%; in assay [5], 94.2%; in assay [6], 91.2%. Further, in assay [7], the viability at 4 µM was 93.3%. Further, the viability at 10 µM in assay [1] is 98.7%; in assay [2], 80.7%; in assay [3] it was 74.4%; in assay [4], 41.6%; in assay [5], 81%; in assay [6], 83.4%. Besides, in assay [7], the viability at 10 µM is 82.8%.
`CNC1CCCN(c2c(C#N)c(NCc3ccc(Cl)cc3)nc3ccccc23)C1` (stereo not drawn) [Compound 3158CN, 2-(4-chlorobenzylamino)-3-cyano-4-[3-(methylamino)piperidin-1-yl]quinoline]: the viability at 4 µM is 107% in assay [1]; 88.4% in assay [2]; 70.9% in assay [3]; 74.2% in assay [4]; 91.5% in assay [5]; 84.6% in assay [6]. In assay [7], the viability at 4 µM was determined as 86.4%. The viability at 10 µM in assay [1] turned out to be 53.1%; in assay [2], 0.5%; in assay [3] it was 0.3%; in assay [4], 0.4%; in assay [5], 0.6%; in assay [6], 0.4%. Besides, the viability at 10 µM in assay [7] turned out to be 0.5%. Further, the pEC50 is 5.00 to 5.30 in assay [1]; 5.00 to 5.30 in assay [2]; 5.30 to 6.30 in assay [3]; 5.30 to 6.30 in assay [4]; 5.00 to 5.30 in assay [5]; 5.30 to 6.30 in assay [6]. Further, in assay [7], the pEC50 was 5.00 to 5.30.
Regarding `CC(C)NC1CCCN(c2c(C#N)c(NCc3ccc(Cl)cc3)nc3ccccc23)C1` (stereo not drawn) [Compound 3160CN, 2-(4-chlorobenzylamino)-3-cyano-4-[3-(isopropylamino)piperidin-1-yl]quinoline], the viability at 4 µM in assay [1] is 96.1%; in assay [2] it was 65.2%; in assay [3] it was 18.2%; in assay [4] it was 57.7%; in assay [5], 88.7%; in assay [6] it was 62.1%. Further, the viability at 4 µM in assay [7] amounted to 80.8%. The viability at 10 µM in assay [1] amounted to 1.2%; in assay [2], 0.5%; in assay [3], 0.4%; in assay [4] it was 0.4%; in assay [5], 0.6%; in assay [6], 0.5%. Further, in assay [7], the viability at 10 µM is 0.5%. For the same compound, the pEC50 in assay [1] is 5.00 to 5.30; in assay [2], 5.00 to 5.30; in assay [3] it was 5.30 to 6.30; in assay [4], 5.30 to 6.30; in assay [5], 5.00 to 5.30; in assay [6], 5.30 to 6.30. Further, the pEC50 in assay [7] is 5.00 to 5.30.
In the case of `CCN(CC)C1CCCN(c2c(C#N)c(NCc3ccc(Cl)cc3)nc3ccccc23)C1` (stereo not drawn) [Compound 160CN, 2-(4-chlorobenzylamino)-3-cyano-4-[3-(diethylamino)piperidin-1-yl]quinoline], the viability at 4 µM in assay [1] worked out at 99.6%; in assay [2], 94.9%; in assay [3] it was 86.6%; in assay [4], 86.4%; in assay [5] it was 106%; in assay [6], 94.5%. Besides, the viability at 4 µM in assay [7] came out at 89.5%. Besides, the viability at 10 µM came out at 75.3% in assay [1]; 40% in assay [2]; 47.9% in assay [3]; 47.3% in assay [4]; 94.5% in assay [5]; 48.3% in assay [6]. The viability at 10 µM in assay [7] came to 62.3%.
For the compound `N#Cc1c(NCc2ccc(Cl)cc2)nc2ccccc2c1N1CCCC(NC2CCCC2)C1` (stereo not drawn) [Compound 162CN, 2-(4-chlorobenzylamino)-3-cyano-4-[3-(cyclopentylamino)piperidin-1-yl]quinoline], the viability at 4 µM in assay [1] worked out at 75.3%; in assay [2], 12%; in assay [3], 0.4%; in assay [4] it was 0.8%; in assay [5], 45.6%; in assay [6], 0.3%. Further, in assay [7], the viability at 4 µM amounted to 37.1%. In addition, the viability at 10 µM in assay [1] was determined as 0.8%; in assay [2], 0.2%; in assay [3] it was 0.2%; in assay [4] it was 0.1%; in assay [5], 0.3%; in assay [6] it was 0.1%. In assay [7], the viability at 10 µM amounted to 0.2%. For the same compound, the pEC50 in assay [2], in assay [3], in assay [4], in assay [5], in assay [6] and in assay [7] was 5.30 to 6.30 in each case.
As to `CC(C)(C)NC1CCN(c2c(F)c(NCc3ccc(F)cc3)nc3ccccc23)CC1` [Compound 240F, 2-(4-fluorobenzylamino)-3-fluoro-4-[4-(tert-butylamino)piperidin-1-yl]quinoline], the viability at 4 µM in assay [1] worked out at 96.5%; in assay [2], 94.7%; in assay [3] it was 73.6%; in assay [4] it was 49.6%; in assay [5], 83.4%; in assay [6], 46.1%. Moreover, the viability at 4 µM in assay [7] came to 70.5%. For the same compound, the viability at 10 µM was 59.5% in assay [1]; 28.7% in assay [2]; 0.2% in assay [3]; 0.2% in assay [4]; 50.8% in assay [5]; 0.1% in assay [6]. In addition, the viability at 10 µM in assay [7] amounted to 2.5%. In addition, the negative logarithm of the EC50 (pEC50) in assay [1], in assay [2], in assay [3], in assay [4], in assay [5] and in assay [6] was 5.00 to 5.30 in each case. For the same compound, the pEC50 in assay [7] is 5.00 to 5.30.
